Measured values: ChEMBL document CHEMBL4414627, “Ealamines A-H, a Series of Naphthylisoquinolines with the Rare 7,8'-Coupling Site, from the Congolese Liana Ancistrocladus ealaensis, Targeting Pancreatic Cancer Cells” (J Nat Prod, 2019)
Active and inactive are the calls of the source. The rule behind the calls is not given here.

How the values were obtained:
PANC-1 [1] = assay: Cytotoxicity against nutrient deprived human PANC1 cells assessed as induction of cell killing incubated for 24 hrs by WST-8 assay; type: functional
PANC-1 [2] = assay: Cytotoxicity against DMEM cultured human PANC1 cells assessed as reduction in cell viability at PC50 incubated for 24 hrs by WST-8 assay; type: cell-based; settings: panc-1, 24 h
Trypanosoma cruzi = assay: Antiprotozoal activity against Trypanosoma cruzi Tulahuen C4 amastigotes infected in rat L6 cells incubated for 96 hrs by beta-galactosidase reporter gene assay; type: functional, organism-based
Plasmodium falciparum [3] = assay: Antiprotozoal activity against chloroquine and pyrimethamine-resistant erythrocytic stage of Plasmodium falciparum K1 assessed as reduction in [3H]hypoxanthine incorporation preincubated for 48 hrs followed by [3H]hypoxanthine addition and measured after 24 hrs by liquid scintillation counting method; type: functional, organism-based
Plasmodium falciparum [4] = assay: Antiprotozoal activity against chloroquine-sensitive Plasmodium falciparum NF54; type: functional, organism-based
[5] = test system: Trypanosoma brucei rhodesiense; assay: Antiprotozoal activity against Trypanosoma brucei rhodesiense STIB900 trypomastigotes incubated for 72 hrs by Alamar blue staining-based fluorometric analysis; type: functional, organism-based
Leishmania donovani = assay: Antiprotozoal activity against Leishmania donovani MHOM-ET-67/L82 axenic amastigotes incubated for 72 hrs by Alamar blue staining-based fluorometric analysis; type: functional, organism-based
L6 = assay: Cytotoxicity against rat L6 cells assessed as reduction in cell viability incubated for 72 hrs by Alamar blue staining-based fluorometric analysis
[6] = Selectivity index, ratio of IC50 for rat L6 cells to IC50 for chloroquine and pyrimethamine-resistant erythrocytic stage of Plasmodium falciparum K1; type: toxicity; settings: for selectivity ratio: L6 cells, read-out: Ratio IC50
[7] = Selectivity index, ratio of IC50 for rat L6 cells to IC50 for chloroquine-sensitive Plasmodium falciparum NF54; type: toxicity; settings: read-out: Ratio IC50
PANC-1 [8] = assay: Induction of cell morphological changes in nutrient deprived human PANC1 cells incubated for 24 hrs by acridine orange/ethidium bromide double staining-based fluorescence/phase contrast mode based EVOS FL digital microscopic analysis; type: functional
PANC-1 [9] = assay: Induction of cell morphological changes in human PANC1 cells assessed as loss of membrane integrity at 12.5 uM incubated for 24 hrs in nutrient deprived medium by acridine orange/ethidium bromide double staining-based fluorescence/phase contrast mode based EVOS FL digital microscopic analysis; type: functional
PANC-1 [10] = assay: Induction of cell death in nutrient deprived human PANC1 cells at 12.5 uM incubated for 24 hrs by acridine orange/ethidium bromide double staining-based fluorescence/phase contrast mode based EVOS FL digital microscopic analysis; type: functional
PANC-1 [11] = assay: Induction of cell morphological changes in nutrient deprived human PANC1 cells assessed as cell swelling at 25 uM incubated for 24 hrs by acridine orange/ethidium bromide double staining-based fluorescence/phase contrast mode based EVOS FL digital microscopic analysis; type: functional
PANC-1 [12] = assay: Induction of cell morphological changes in nutrient deprived human PANC1 cells assessed as cell rounding at 25 uM incubated for 24 hrs by acridine orange/ethidium bromide double staining-based fluorescence/phase contrast mode based EVOS FL digital microscopic analysis; type: functional
[13] = Trypanosoma cruzi, Tulahuen C4, L6, 96 h
[14] = Trypanosoma brucei, STIB900, 72 h
[15] = Leishmania donovani, MHOM-ET-67/L82, 72 h

COc1c2c(cc(O)c1-c1ccc(O)c3c(OC)cc(C)cc13)C[C@@H](C)N=C2C
Activity (PANC-1 [1]): Dose-dependent effect | PC50 (PANC-1 [1]): 37.8 µM | Activity (PANC-1 [2]): Non-Toxic

O=C(Cn1ccnc1[N+](=O)[O-])NCc1ccccc1 [BENZNIDAZOLE]
IC50 (Trypanosoma cruzi; [13]): 3.6 µM

COc1c(-c2ccc(O)c3c(OC)cc(C)cc23)c(O)cc2c1[C@H](C)N[C@H](C)C2
Activity (PANC-1 [1]): Dose-dependent effect | PC50 (PANC-1 [1]): 33.4 µM | Activity (PANC-1 [2]): Non-Toxic

COc1cc(C[C@H]2C(=O)OC[C@@H]2Cc2ccc(OC)c(OC)c2)ccc1O [ARCTIGENIN]
PC50 (PANC-1 [1]): 0.8 µM | Activity (PANC-1 [2]): Non-Toxic

COc1c(-c2ccc(OC)c3c(OC)cc(C)cc23)c(O)cc2c1[C@@H](C)N[C@H](C)C2 (single isomer, unassigned; atropisomer) [listing 1 of 2 here]
Activity (PANC-1 [1]): Dose-dependent effect

COc1c(-c2ccc(OC)c3c(OC)cc(C)cc23)c(O)cc2c1[C@@H](C)N[C@H](C)C2 [listing 1 of 2 here]
IC50 (Plasmodium falciparum [3]; Plasmodium falciparum, K1): 1.4 µM | IC50 (Plasmodium falciparum [4]; Plasmodium falciparum, NF54): 4.9 µM | IC50 (Trypanosoma cruzi; [13]): 123 µM | IC50 [5, 14]: 7.8 µM | IC50 (Leishmania donovani): 53.4 µM | IC50 (L6; l6): 20.9 µM | Ratio IC50 [6]: 15 | PC50 (PANC-1 [1]): 30.6 µM

COc1cc2c(c(O)c1-c1ccc(OC)c3c(OC)cc(C)cc13)[C@@H](C)N[C@H](C)C2
IC50 (Plasmodium falciparum [3]; Plasmodium falciparum, K1): 8.2 µM | IC50 (Plasmodium falciparum [4]; Plasmodium falciparum, NF54): 22.2 µM | IC50 (Trypanosoma cruzi; [13]): 225 µM | IC50 [5, 14]: 106 µM | IC50 (Leishmania donovani; [15]): > 250 µM | IC50 (L6; Rattus norvegicus, L6, 72 h): > 250 µM | selectivity ratio [6]: > 30 | Activity (PANC-1 [1]): Dose-dependent effect | PC50 (PANC-1 [1]): 60.4 µM | Activity (PANC-1 [2]): Non-Toxic

COc1c(-c2ccc(O)c3c(OC)cc(C)cc23)c(O)cc2c1[C@@H](C)N[C@H](C)C2
IC50 (Plasmodium falciparum [4]; Plasmodium falciparum, NF54): 0.84 µM | IC50 (Trypanosoma cruzi; [13]): 102 µM | IC50 [5, 14]: 9.4 µM | IC50 (Leishmania donovani; [15]): > 250 µM | IC50 (L6; Rattus norvegicus, L6, 72 h): 47.7 µM | selectivity ratio [7]: 56.8 | Activity (PANC-1 [1]): Dose-dependent effect | PC50 (PANC-1 [1]): 9.9 µM | Activity (PANC-1 [8]): Dose-dependent effect | Activity (PANC-1 [9]): Active | Activity (PANC-1 [10]): Active | Activity (PANC-1 [11]): 100% | Activity (PANC-1 [12]): 100% | Activity (PANC-1 [2]): Non-Toxic

COc1c(-c2ccc(OC)c3c(OC)cc(C)cc23)c(O)cc2c1[C@@H](C)N[C@H](C)C2 (single isomer, unassigned; atropisomer) [listing 2 of 2 here]
IC50 (Plasmodium falciparum [3]): 1.6 µM | IC50 (Plasmodium falciparum [4]): 6.3 µM | IC50 (Trypanosoma cruzi): 73.4 µM | IC50 [5]: 9.8 µM | IC50 (Leishmania donovani): 170 µM | IC50 (L6; l6): 9.1 µM | Ratio IC50 [6]: 5.6 | PC50 (PANC-1 [1]): 12.5 µM | Activity (PANC-1 [2]): Non-Toxic

COc1cc(O)c(-c2cc(-c3cc(-c4c(O)cc5c(c4OC)[C@H](C)N[C@H](C)C5)c4cc(C)cc(OC)c4c3O)c(O)c3c(OC)cc(C)cc23)c2c1[C@H](C)N[C@H](C)C2
IC50 (Plasmodium falciparum [3]; Plasmodium falciparum, K1): 0.0063 µM | IC50 (L6; Rattus norvegicus, L6, 72 h): 6 µM | selectivity ratio [6]: 1000

COc1c(-c2ccc(OC)c3c(OC)cc(C)cc23)c(O)cc2c1[C@@H](C)N[C@H](C)C2 [listing 2 of 2 here]
Activity (PANC-1 [1]): Dose-dependent effect
